# Test system: allogeneic T cells
# Assay: Allogeneic proliferative response to early BiP treated DC (tritiated thymidine uptake)
# Format: cell-based, human
# Conditions: DC differentiated with BiP 20 μg/ml
# Description: Allogeneic responses by T cells in culture with irradiated (3,000 rads) early DC (eDC), after only 3d in culture with GM-CSF and IL-4 in the presence or absence of BiP (20 μg/ml) at a ratio of 10:1 PBMC:DC (105:10^4 cells/well). The results are shown as an allogeneic proliferative response (A) following addition of neutralizing anti-IL-10 ( 1/100 dilution) antibody and (B) the pre-treatment (2 h) of monocytes (MO) with p38 inhibitor, SB203580 (SB)(10 μM) or the ERK1/2 inhibitor, PD 98059 (PD)(10 μM), prior to the addition of GM-CSF and IL-4 to the cultures. The proliferation of PBMC to early DC following (C) the addition of BiP 24 h post addition of GM-CSF and IL-4. Proliferation was measured by uptake of tritiated thymidine and recorded as counts per minute (cpm). ELISA was used to detect IL-10 (D) in the culture supernatants and (E) by 7d cultured iDC/iDC(BiP) and fully matured mDC/mDC(BiP) differentiated as described in following 7d culture in GM-CSF and IL-4 with LPS (500 ng/ml) added for the final 2d.
# To neutralize IL-10 within the cultures anti-IL-10 antibody (ATCC, Rockville, USA) was added at day 0 (5 μg/ml) to GM-CSF and IL-4 treated cultures in the presence and absence of BiP (20 μg/ml). Two specific cell-permeable inhibitors of the MAPK intracellular signalling pathways were used. SB203580 (SB)(10 μM)((Calbiochem, Darmstadt, Germany) inhibits p38 MAPK, and PD98059 (PD) (10 μM)(Calbiochem), an inhibitor of MAPK extracellular signal regulated kinase (ERK), were tested. MO were pre-treated with the inhibitors for 2 h before adding GM-CSF and IL-4 in the presence or absence of BiP.
substance,measurement,value
BiP: 78 kD endoplasmic reticulum chaperone protein as disclosed in WO 00/21995; recombinant human protein,proliferation of allogeneic T cells stimulated by iDC(BiP) or mDC(BiP),significantly reduced proliferation

# Reference: patent US20080155704A1, “Methods and Compositions for Determining in vivo Activity of BiP” (King's College London, priority 2006, published 2008)
